Our source for the IC50 values is US10023593B2, “ALK kinase inhibitor, and preparation method and uses thereof” (BEIJING PEARL BIOTECHNOLOGY LIMITED LIABILITY COMPANY, priority 2014, dated 2018).

One assay addresses T1, Wild Type ALK kinase (Homo sapiens, UniProt Q9UM73).
T1 construct: purchased Sino-US Crown Bioscience, Inc. batch number ALK 20110607
The experiment in a line: HTRF KinEASE-TK assay, inhibitory activity on wild type ALK kinase. In kind it is biochemical. Conditions: wild type ALK 1 ng/μl, substrate 1 μM, 30° C. 35 minutes, read-out: Inhibition on ALK kinases (wildtype), IC50. The source says:
1. Inhibitory Activities of the Compounds of the Present Invention on Wild Type ALK Kinases
? experimental method ? HTRF KinEASE™-TK Assay kit from Cisbio company was used to detect inhibitory activities of the compounds on wildtype ALK kinases (wild type ALK kinases).
(§1) ? instrument ? Envision 2104 plate reader from PerKinElmer company.
? experiment material ? HTRF KinEASE™-TK Assay Kit (Cisbio company, catalog No. 62TK0PEC); Wild Type ALK kinase (produced by Sino-US Crown Bioscience, Inc., batch number ALK 20110607); DTT (Gibco BRL company, catalog No. 15508-012); MgCl2 (Sigma Aldrich company, catalog No. M-2670); ATP (Sigma Aldrich company, catalog No. A-7699); DMSO (AMRESCO company, catalog No. 0231); EDTA (AMRESCO company, catalog No. 0105); 96 wells plates (for diluting compounds) (CITOTEST company, catalog No. Ref36020096D); OptiPlate™-384 (White), PerkinElmer company, catalog No. P12-004)
(§2) ? experimental condition ? Compounds (the final concentration of DMSO was 1%), the reaction substrate (the final concentration was 1 μM), ATP (the final concentration was 2004), and Wildtype ALK kinases (the final concentration was 1 ng/μl) were mixed respectively in a final volume of 10 μl reaction system (containing 5 mM MgCl2, 1× Kinase buffer, and 1 mM DTT). The mixture was reacted at 30° C. for 35 minutes after shaking for 30 seconds. After completion of the reaction, each well was added with 5 μl Sa-XL665 and 5 μl TK Antibody-Eu(K), and placed in the dark for 60 minutes to end the reaction after uniform mixing. The data was read from PerkinElmer EnVision plate reader ([…]), the 665/615 ratio was calculated, and the data was analyzed.
(§3) ? tested samples ? Compounds from the examples.
(§4) ? data analysis ? Minimum 665/615 ratio (Rmin, 665/615 ratio under the condition that 10.4 μM positive control drug LDK-378 was added)
(§5) Maximum 665/615 ratio (Rmax, 665/615 ratio under the condition that no compound was added)
(§6) Tested 665/615 ratio (Rcompound, 665/615 ratio under the condition that a given concentration of compound was added) Inhibition rate (%)=[1−(Rcompound−Rmin)/(Rmax−Rmin)]×100
(§7) ? data processing ? IC50 of compounds was calculated by using XLfit program in Excel.
On the technique in general: TR-FRET usually uses a lanthanide donor and a delayed reading to cut background.

The target in another assay is T2, L1196M mutant ALK kinase (Homo sapiens, UniProt Q9UM73, L1196M).
T2 construct: purchased Sino-US Crown Bioscience, Inc. batch number ALKm_20110923
The experiment in a line: HTRF KinEASE-TK assay, inhibitory activity on L1196M mutant ALK kinase. In kind it is biochemical. Conditions: L1196M mutant ALK 1 ng/μl, substrate 1 μM, ATP 5 μM, 30° C. 35 minutes, read-out: Inhibition on ALK kinases (L1196M mutant), IC50.
From the text: 2. Inhibitory Activities of the Compounds of the Present Invention on L1196M Mutant ALK Kinases
? experimental method ? HTRF KinEASE™-TK Assay kit from Cisbio company was used to detect inhibitory activities of the compounds on L1196M mutant ALK kinases.
as §1
? experiment material ? HTRF KinEASE™-TK Assay Kit (Cisbio company, catalog No. 62TK0PEC); L1196M mutant ALK kinase (produced by Sino-US Crown Bioscience, Inc., batch number ALKm_20110923); DTT (Gibco BRL company, catalog No. 15508-012); MgCl2 (Sigma Aldrich company, catalog No. M-2670); ATP (Sigma Aldrich company, catalog No. A-7699, batch number 051M7014V); DMSO (AMRESCO company, catalog No. 0231); EDTA (AMRESCO company, catalog No. 0105); 96 wells plates (for diluting compounds) (CITOTEST company, catalog No. Ref36020096D); OptiPlate™-384 (White), PerkinElmer company, catalog No. P12-004)
as §2, with “5 μM),” for “2004),”, “L1196M mutant” for “Wildtype”
as §3, §4, §5, §6, §7

For a further assay, the system named is NCI-H2228 cell line. The experiment in a line: CellTiter-Glo cell proliferation inhibition on NCI-H2228 cell line. In kind it is cell-based. Conditions: Homo sapiens, NCI-H2228, 96 h, NCI-H2228 cells, 5000 cells/well, 4 days drug treatment. The gist of the method: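 NCI-H2228 cells, 5000/well in RPMI-1640 + 10% FBS, treated with compounds 2 h after seeding (0.5% DMSO final) for 4 days at 37° C. Viability by CellTiter-Glo luminescence; inhibition relative to DMSO control, IC50 from curve fit.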
(In general: ATP-based viability assays read luminescence as a measure of living cells.)

T1 sequence (Q9UM73 19-1620): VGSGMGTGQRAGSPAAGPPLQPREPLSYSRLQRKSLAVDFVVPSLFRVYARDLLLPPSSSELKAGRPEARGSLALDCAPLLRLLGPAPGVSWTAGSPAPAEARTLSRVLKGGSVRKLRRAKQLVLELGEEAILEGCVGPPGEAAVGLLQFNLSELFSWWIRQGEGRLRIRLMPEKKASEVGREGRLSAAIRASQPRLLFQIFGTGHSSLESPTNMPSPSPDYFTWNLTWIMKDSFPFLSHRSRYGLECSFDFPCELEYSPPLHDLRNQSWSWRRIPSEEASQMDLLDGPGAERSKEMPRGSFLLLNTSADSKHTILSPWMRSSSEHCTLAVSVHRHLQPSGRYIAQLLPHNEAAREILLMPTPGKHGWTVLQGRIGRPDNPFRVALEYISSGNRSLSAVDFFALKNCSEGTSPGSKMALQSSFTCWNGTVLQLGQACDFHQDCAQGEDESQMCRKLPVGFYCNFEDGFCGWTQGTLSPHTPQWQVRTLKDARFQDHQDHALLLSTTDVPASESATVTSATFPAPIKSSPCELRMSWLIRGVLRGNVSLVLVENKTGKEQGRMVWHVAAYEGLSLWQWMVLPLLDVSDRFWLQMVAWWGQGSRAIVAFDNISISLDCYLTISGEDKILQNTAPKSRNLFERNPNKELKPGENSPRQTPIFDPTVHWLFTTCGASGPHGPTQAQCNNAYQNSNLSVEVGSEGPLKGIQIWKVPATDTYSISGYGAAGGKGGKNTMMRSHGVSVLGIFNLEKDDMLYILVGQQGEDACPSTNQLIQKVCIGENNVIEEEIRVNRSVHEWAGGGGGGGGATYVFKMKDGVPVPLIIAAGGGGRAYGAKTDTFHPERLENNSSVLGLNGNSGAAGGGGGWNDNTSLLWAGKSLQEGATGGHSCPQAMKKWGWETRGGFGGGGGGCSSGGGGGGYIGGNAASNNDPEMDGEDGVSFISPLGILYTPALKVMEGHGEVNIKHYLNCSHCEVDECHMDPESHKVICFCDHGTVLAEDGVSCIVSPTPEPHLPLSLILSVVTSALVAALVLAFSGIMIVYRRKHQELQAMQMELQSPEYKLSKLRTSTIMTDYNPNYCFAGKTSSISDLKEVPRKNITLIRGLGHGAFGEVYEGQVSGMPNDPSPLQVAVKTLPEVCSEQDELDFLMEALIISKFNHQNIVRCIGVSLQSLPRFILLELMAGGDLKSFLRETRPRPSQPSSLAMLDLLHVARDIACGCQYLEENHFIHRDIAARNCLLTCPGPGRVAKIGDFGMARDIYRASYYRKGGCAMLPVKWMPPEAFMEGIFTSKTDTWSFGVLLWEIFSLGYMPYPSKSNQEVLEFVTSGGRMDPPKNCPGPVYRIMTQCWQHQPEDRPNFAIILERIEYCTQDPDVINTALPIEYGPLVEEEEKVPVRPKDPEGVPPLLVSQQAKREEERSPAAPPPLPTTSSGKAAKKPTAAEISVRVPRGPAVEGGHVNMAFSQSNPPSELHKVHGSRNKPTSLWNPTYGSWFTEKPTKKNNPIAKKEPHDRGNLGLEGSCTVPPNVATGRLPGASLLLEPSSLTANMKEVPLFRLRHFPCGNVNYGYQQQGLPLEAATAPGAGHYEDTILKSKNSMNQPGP
T2 sequence (Q9UM73 19-1620 L1196M): as the sequence (Q9UM73 19-1620) above, with L1178M counted along it

Consider `Cc1cc(Nc2ncc(Cl)c(Nc3cn(C)nc3S(=O)(=O)C(C)C)n2)c(C(C)C)cc1C1CCN(C)CC1` [Final product 33], for which the IC50 (in general, the concentration needed to halve the response being measured) at Wild Type ALK kinase was found to be 12 nM; on L1196M mutant ALK kinase, 28 nM; with NCI-H2228 cell line, 660 nM.

As for `Cc1cc(Nc2ncc(Cl)c(Nc3cn(C)nc3S(=O)(=O)C3CCC3)n2)c(OC2CC2)cc1C1CCN(C)CC1` [Final product 52], the 50% inhibitory concentration (IC50) on Wild Type ALK kinase amounted to 2 nM; on L1196M mutant ALK kinase it was 15 nM; in the assay on NCI-H2228 cell line, 76 nM.

Take `Cc1cc(Nc2ncc(F)c(Nc3cn(C)nc3S(=O)(=O)C(C)C)n2)c(OC2CC2)cc1C1CCN(C)CC1` [Final product 70]: the IC50 on Wild Type ALK kinase stood at 2 nM; at L1196M mutant ALK kinase, 18 nM; in the assay on NCI-H2228 cell line, 81 nM.

As for `Cc1cc(Nc2ncc(C)c(Nc3cn(C)nc3S(=O)(=O)C(C)C)n2)c(OC2CC2)cc1C1CCN(C)CC1` [Final product 72], the figures for the IC50 on Wild Type ALK kinase, at L1196M mutant ALK kinase and in the assay on NCI-H2228 cell line were 1 nM, 6 nM and 69 nM, respectively.

In the case of `Cc1cc(Nc2ncc(Cl)c(Nc3cn(C)nc3S(=O)(=O)C(C)C)n2)c(OC2CC2)cc1C1CCN(C)C(C)C1` (centres unmarked) [Final product 92], the 50% inhibitory concentration (IC50) was found to be 2 nM at Wild Type ALK kinase, 5 nM at L1196M mutant ALK kinase and 48 nM in the assay with NCI-H2228 cell line.

For `Cc1nc(S(=O)(=O)C(C)C)c(Nc2nc(Nc3cc(C)c(C4CCN(C)CC4)cc3OC3CC3)ncc2Cl)s1` [Final product 113], the figures for the IC50 on Wild Type ALK kinase, at L1196M mutant ALK kinase and in the assay on NCI-H2228 cell line were 6 nM, 22 nM and 150 nM, respectively.

For `Cc1cc(Nc2ncc(Cl)c(Nc3cn(C)nc3S(=O)(=O)C(C)C)n2)c(OC2CC2)cc1C1CCN(C(C)C)CC1` [Final product 123, 5-chloro-N^2-[2-cyclopropoxy-4-(1-isopropylpiperidin-4-yl)-5-methyl-phenyl]-N^4-[1-methyl-3-(isopropylsulfonyl)-1H-pyrazol-4-yl]-pyrimidin-2,4-diamine], the IC50 on Wild Type ALK kinase worked out at 2 nM; on L1196M mutant ALK kinase, 5 nM.

As for `Cc1cc(Nc2ncc(Cl)c(Nc3cn(C)nc3S(=O)(=O)C(C)C)n2)c(OC2CC2)cc1C1CCN(C(=O)C(C)C)CC1` [Final product 163, 1-isobutyryl-4-(4-(5-chloro-4-(3-(isopropylsulfonyl)-1-methyl-1H-pyrazol-4-amino)pyrimidin-2-amine)-5-cyclopropoxy-2-methylphenyl)piperidine], the IC50 at Wild Type ALK kinase was 26 nM; on L1196M mutant ALK kinase it was 29 nM; in the assay with NCI-H2228 cell line, 149 nM.

As for `Cc1cc(Nc2ncc(Cl)c(Nc3cn(C)nc3S(=O)(=O)CC(C)C)n2)c(OC(C)C)cc1C1CN(S(C)(=O)=O)C1` [Final product 169], the IC50 on Wild Type ALK kinase is 68 nM; at L1196M mutant ALK kinase, 43 nM; in the assay with NCI-H2228 cell line, 133 nM.

On to `CCN(CC)[C@H]1CC[C@@H](c2cc(OC3CC3)c(Nc3ncc(Cl)c(Nc4cn(C)nc4S(=O)(=O)C(C)C)n3)cc2C)CC1` [Final product 191], for which the results for the IC50 at Wild Type ALK kinase, on L1196M mutant ALK kinase and in the assay with NCI-H2228 cell line were 8 nM, 17 nM and 60 nM, respectively.

`CCN(CC)[C@H]1CC[C@H](c2cc(OC3CC3)c(Nc3ncc(Cl)c(Nc4cn(C)nc4S(=O)(=O)C(C)C)n3)cc2C)CC1` [Final product 192]: the IC50 was found to be 9 nM on Wild Type ALK kinase, 12 nM on L1196M mutant ALK kinase and 68 nM with NCI-H2228 cell line.

On to `Cc1cc(Nc2ncc(C(F)(F)F)c(Nc3cn(C)nc3S(=O)(=O)C(C)C)n2)c(OC2CC2)cc1C1CCN(C)CC1` [Final product 209, N^2-[2-cyclopropoxy-4-(1-methyl-piperidin-4-yl)-5-methylphenyl]-N^4-[1-methyl-3-(isopropylsulfonyl)-1H-pyrazol-4-yl]-5-(trifluoromethyl)pyrimidin-2,4-diamine], for which the 50% inhibitory concentration (IC50) at Wild Type ALK kinase came out at 3 nM; at L1196M mutant ALK kinase, 9 nM; with NCI-H2228 cell line it was 71 nM.

`Cc1cc(Nc2ncc(C#N)c(Nc3cn(C)nc3S(=O)(=O)C(C)C)n2)c(OC2CC2)cc1C1CCN(C)CC1` [Final product 210, N^2-[2-cyclopropoxy-4-(1-methyl-piperidin-4-yl)-5-methyl-phenyl]-N^4-[1-methyl-3-(isopropylsulfonyl)-1H-pyrazol-4-yl]-5-(cyano)pyrimidin-2,4-diamine]: the IC50 on Wild Type ALK kinase came to 2 nM; at L1196M mutant ALK kinase it was 4 nM; with NCI-H2228 cell line, 87 nM.

As to `Cc1cc(Nc2ncc(Cl)c(Nc3cn(C)nc3C#N)n2)c(OC2CC2)cc1C1CCN(C)CC1` [Final product 211, 5-chloro-N^2-[2-cyclopropoxy-4-(1-methyl-piperidin-4-yl)-5-methyl-phenyl]-N^4-[1-methyl-3-cyano-1H-pyrazol-4-yl]-pyrimidin-2,4-diamine], the IC50 amounted to 3 nM at Wild Type ALK kinase, 11 nM on L1196M mutant ALK kinase and 272 nM in the assay with NCI-H2228 cell line.

As to `Cc1cc(Nc2nc(Nc3cc(C)c(C4CCN(C)CC4)cc3OC(C)C)ncc2Cl)n[nH]1` [Final product 212, 5-chloro-N^2-[2-isopropoxy-4-(1-methyl-piperidin-4-yl)-5-methyl-phenyl]-N^4-[5-methyl-1H-pyrazol-3-yl]-pyrimidin-2,4-diamine, reference compound], the results for the IC50 at Wild Type ALK kinase, at L1196M mutant ALK kinase and with NCI-H2228 cell line were 13 nM, 37 nM and 725 nM, respectively.

For the molecule `Cc1cc(Nc2nc(Nc3cc(C)c(C4CCN(C(C)C)CC4)cc3C)ncc2Cl)n[nH]1` [Final product 213, reference compound], the values for the IC50 at Wild Type ALK kinase, at L1196M mutant ALK kinase and in the assay with NCI-H2228 cell line were 19 nM, 22 nM and 964 nM, respectively.

Regarding `Cc1cc(Nc2nc(Nc3cc(C)c(C4CCCNC4)cc3C)ncc2Cl)n[nH]1` (centres unmarked) [Final product 214, reference compound], the concentration for half-maximal inhibition (IC50) on Wild Type ALK kinase was determined as 22 nM; on L1196M mutant ALK kinase, 54 nM; in the assay with NCI-H2228 cell line, 1240 nM.

In the case of `Cc1cc(Nc2nc(Nc3cc(C)c(C4CCN(CCO)CC4)cc3C)ncc2Cl)n[nH]1` [Final product 215, reference compound], the figures for the IC50 on Wild Type ALK kinase, at L1196M mutant ALK kinase and in the assay on NCI-H2228 cell line were 28 nM, 39 nM and 1040 nM, respectively.

On to `CNC(=O)CN1CCC(c2cc(OC)c(Nc3ncc(Cl)c(Nc4cc(C)n[nH]4)n3)cc2C)CC1` [Final product 216, reference compound], for which the IC50 was 17 nM on Wild Type ALK kinase, 28 nM at L1196M mutant ALK kinase and 948 nM in the assay on NCI-H2228 cell line.

`Cc1cc(Nc2nc(Nc3cc(C)c(C4CCN(S(C)(=O)=O)CC4)cc3C)ncc2Cl)n[nH]1` [Final product 217, reference compound]: the IC50 at Wild Type ALK kinase amounted to 20 nM; on L1196M mutant ALK kinase it was 69 nM; in the assay with NCI-H2228 cell line, 1130 nM.

Take `Cc1cc(Nc2nc(Nc3cc(C)c([C@H]4CC[C@H](N5CCN(C)CC5)CC4)cc3F)ncc2Cl)[nH]n1` [Final product 218, reference compound]: the half-maximal inhibitory concentration (IC50) on Wild Type ALK kinase was found to be 27 nM; at L1196M mutant ALK kinase it was 49 nM; in the assay with NCI-H2228 cell line, 1070 nM.
